Where two headings read alike, the source gives them in different places.
Assays:
Format in all cases: cell-based
TNF-α = TNF-α activity inhibition assay (LPS-stimulated hPBMC, TNF-α ELISA); conditions: Homo sapiens, 18 h
Procedure: Efficacy Example 1: TNF-α Activity Inhibition Assay
Heat Inactivated FBS: Invitrogen, Cat #10100147
DMSO: Dimethyl sulphoxide, Sigma, Cat #D8418
CTL-Anti-Aggregate Wash 20×: CTL, Cat #CTL-AA-005
Human TNF ELISA Set: BD, Cat #555212
PBMC Recovery and Cell Plating Steps
1) Agitation was performed continuously in a 37° C. water bath to rapidly thaw cells.
2) The cells were gently added to a 15 ml centrifuge tube, to which was then added 10 ml of fresh, prewarmed recovery medium gently and then centrifugation was performed at 1000 rpm for 10 min.
3) The supernatant medium was discarded and resuspension was performed with 10 ml of fresh, prewarmed RPMI 1640 complete medium.
1) The total number of cells needed for the experiment was calculated and adjusted to the appropriate cell concentration per ml. 100 ul and 10^5 cells per well.
2) The cell suspension was diluted with appropriate volume of cell culture medium.
3) The cell suspension was added to a disposable sterile sample well.
4) 100 ul of cell suspension was added to each well of a 96-well plate.
5) The plate was incubated in a 37° C., 5% CO2 incubator for 2 hours.
Compound Preparation Step
1. LPS: The 1 mg/mL stock solution was diluted with water, aliquoted, and stored at −80° C. Prior to each test, the working solution of LPS was diluted from the stock solution with serum-free RPMI 1640 medium.
20 mM stock solution was dissolved in DMSO and the compound was checked for solubility, aliquoted, and stored at −80° C.
8× compound gradient preparation: […]
A series of compound concentration gradient was diluted with DMSO: 10 mM, 2 mM, 0.4 mM, 80 uM, 16 uM, 3.2 uM, 0.64 uM, 0.128 uM were obtained and then the compounds were diluted 125-fold with serum-free RPMI 1640 medium to the final 8×. The final concentration of DMSO in cell culture was 0.1%.
Compound Processing Experimental Procedures and Collection of Supernatants
1. Cell Plating: Fresh cells were plated in 96-well cell culture plates according to the procedure above, 100 ul and 10^5 cells per well, and then incubated in a 37° C., 5% CO2 incubator for 2 hours.
2. Compound Preparation: Before test, compounds were added to the plates according to the above description. A dose of compound in 8× concentration was prepared with serum-free RPMI 1640 medium and all gradients of solution were added to the compound plate.
3. Compound addition: 16.7 ul of compound solution in working concentration was added to each well of the cell culture plate. The plate was incubated in a 37° C., 5% CO2 incubator for 1 hour.
4. 16.7 ul of 8×LPS per well (final concentration of LPS is EC80, the amount of each PBMC needed to be determined) was added. The plate was incubated for 18 hours in 37° C., 5% CO2 incubator.
5. 80 ul of supernatant per well was collected and then subjected to TNF-α ELISA assay. The collected supernatant can be stored at −80° C. The supernatant needed to be diluted in various ratios to ensure that the experimental dose would not exceed the linear range of the TNF-α standard curve, depending on the amount of TNF-α released in different donors. Typically, 20-100 ul of supernatant was diluted to 200 ul and then used for ELISA experiments.
The TNF-α ELISA test procedure were referred to the BD human TNF-α ELISA kit experimental procedure.
Four compounds per plate. 5-fold dilution was performed, starting from 10 uM, by 8 gradients, and parallel wells were made. A total of 16 compounds were tested.
The TNF-α standard was added to each plate. (1st well, starting from 500 pg/ml, 2-fold dilution, 7 gradients)
ZPE (0% inhibition) used 15 pg/ml LPS+0.1% DMSO, while HPE (100% inhibition) used only 0.1% DMSO.
The inhibition rate statistics were calculated. The inhibition rate (%)=[1−[…]]*100%. IC50 was used to evaluate the concentration of the test compound (nM) at 50% inhibition.

[1] = test system: MM.1S cells (myeloma cells); experiment: CTG cell proliferation, MM.1S; conditions: Homo sapiens, MM1.S, CellTiter-Glo, 72-120 hours, read-out: IC50 value for MM.1S Inhibition
Text: (§1) Efficacy Example 2: CTG Cell Proliferation Experimental Method
(§2) MM.1S cells (myeloma cells) (ATCC, catalog number CRL-2974), DOHH2 cells (mantle cell lymphoma cells) (DSMZ, catalog number ACC-47), NCI-H929 cells (myeloma cells) (ATCC, catalog number CRL-9068), or WSU-DLCL-2 cells (diffuse large B cell lymphoma cells) (DSMZ, catalog number ACC-575), Namalwa.CSN/70 cells (non-Hodgkin's lymphoma cells (DSMZ, catalog number ACC-70) was inoculated as (1.8-15)×10^3 per well in white wall, transparent bottom 96-well plate containing specific media (Corning, catalog number CLS3903), which was cultured in 37° C., 5% CO2 incubator for 24 hours. Compounds were formulated in DMSO (Sigma, Cat. No. 276855) as 150 mM stock, which was diluted to the required concentration (DMSO final concentration is 0.2%) in culture medium and added to each well, 2 wells/concentration. The plate was incubated in 37° C., 5% CO2 incubator for 72-120 hours. Afterwards, 100 μl of CellTiter-Glo® cell activity assay reagent (Promega, Cat. No. G7570) was added to each well, which was mixed on a plate shaker for 10 minutes to induce cell lysis. The 96-well plate was allowed to stand at room temperature for 10 minutes to stabilize the luminescence signal. A white base film was pasted on the bottom of the plate and the EnSpire was used to read the plate. Data processing was performed with XLfit software to obtain IC50 values.

[2] = test system: Namalwa.CSN/70 cells (non-Hodgkin's lymphoma cells); experiment: CTG cell proliferation, Namalwa.CSN/70; conditions: Table 2 batch; CellTiter-Glo, 72-120 hours; read-out: IC50 value for Namalwa. CSN/70 Inhibition
Text: as §1, §2

[3] = test system: DOHH2 cells (mantle cell lymphoma cells); experiment: CTG cell proliferation, DOHH2; conditions: Homo sapiens, DOHH-2; Table 2 batch; CellTiter-Glo, 72-120 hours; read-out: IC50 value for DOHH2 Inhibition
Text: as §1, §2

[4] = test system: WSU-DLCL-2 cells (diffuse large B cell lymphoma cells); experiment: CTG cell proliferation, WSU-DLCL-2; conditions: Homo sapiens, WSUDLCL2; Table 2 batch; CellTiter-Glo, 72-120 hours; read-out: IC50 value for WSU-DLCL2 Inhibition
Text: as §1, §2

[5] = test system: NCI-H929 cells (myeloma cells); experiment: CTG cell proliferation, NCI-H929; conditions: Homo sapiens, Table 2 batch, CellTiter-Glo, 72-120 hours, read-out: IC50 value for NCI-H929 Inhibition
Text: as §1, §2

Row | SMILES | IC50 (TNF-α; Table 1-1 experiment) | IC50 ([1]; Table 3 batch) | further results
1 | Cc1nc2cc(F)ccc2c(=O)n1C1CCC(=O)NC1=O (stereo not shown) [Reference 1, reference compound] | 2800 nM | 2400 nM | 
2 | Cc1nc2cc(F)cc(NC(C)C)c2c(=O)n1C1CCC(=O)NC1=O (stereo not shown) [Compound K617] | 153 nM |  | 
3 | Cc1nc2cc(F)cc(N)c2c(=O)n1[C@H]1CCC(=O)NC1=O [Compound K102] | 7.3 nM |  | IC50 ([1]; Table 4 batch): 104 nM
4 | COc1cc(F)cc2nc(C)n(C3CCC(=O)NC3=O)c(=O)c12 (stereo not shown) [Compound K627] |  | 5930 nM | 
5 | Cc1nc2cccc(N)c2c(=O)n1C1CCC(=O)NC1=O (stereo not shown) [Compound K001, reference compound] | 32.8 nM | 37.5 nM | IC50 [2]: 65.8 nM; IC50 (TNF-α; Table 1 experiment): 32.5 nM; IC50 [3]: 459 nM; IC50 [4]: 469 nM; IC50 ([1]; Table 2 batch): 49.8 nM; IC50 ([1]; Table 4 batch): 275 nM; IC50 [5]: 86.1 nM
6 | Cc1nc2cc(F)cc(O)c2c(=O)n1C1CCC(=O)NC1=O (stereo not shown) [Compound K631] |  | 956 nM | 
7 | [2H][C@]1(n2c(C)nc3cc(F)cc(N)c3c2=O)CCC(=O)NC1=O [Compound K105] | 6.4 nM |  | IC50 ([1]; Table 4 batch): 33 nM
8 | Cc1nc2cc(F)cc(N)c2c(=O)n1C1CCC(=O)NC1=O (stereo not shown) [Compound K101] | 10.2 nM |  | IC50 [2]: 6.8 nM; IC50 (TNF-α; Table 1 experiment): 27.8 nM; IC50 [3]: 125 nM; IC50 [4]: 179 nM; IC50 ([1]; Table 2 batch): 13.3 nM; IC50 [5]: 30.4 nM
9 | Cc1nc2cc(Cl)cc(N)c2c(=O)n1C1CCC(=O)NC1=O (stereo not shown) [Compound K401] | 10.2 nM | 22 nM | 
10 | [2H][C@@]1(n2c(C)nc3cc(F)cc(N)c3c2=O)CCC(=O)NC1=O [Compound K106] | 781 nM |  | IC50 ([1]; Table 4 batch): 504 nM
11 | Cc1nc2cc(Br)cc(N)c2c(=O)n1C1CCC(=O)NC1=O (stereo not shown) [Compound K501] | 9.6 nM | 26.7 nM | 
12 | CNc1cc(F)cc2nc(C)n(C3CCC(=O)NC3=O)c(=O)c12 (stereo not shown) [Compound K613] | 9.4 nM |  | 
13 | Cc1cc(N)c2c(=O)n(C3CCC(=O)NC3=O)c(C)nc2c1 (stereo not shown) [Compound K720] | 138 nM |  | 
14 | Cc1nc2cc(OCc3ccc(CN4CCOCC4)cc3F)cc(N)c2c(=O)n1C1CCC(=O)NC1=O (stereo not shown) [Compound K706] | 319 nM |  | 
15 | [2H]C1(n2c(C)nc3cc(F)cc(N)c3c2=O)CCC(=O)NC1=O (stereo not shown) [Compound K104] |  |  | IC50 ([1]; Table 4 batch): 192 nM
16 | Nc1cccc2c1CN(C1CCC(=O)NC1=O)C2=O (stereo not shown) [Compound B001] | 99.1 nM |  | IC50 [2]: > 300000 nM; IC50 (TNF-α; Table 1 experiment): 192 nM; IC50 [3]: > 300000 nM; IC50 [4]: > 300000 nM; IC50 ([1]; Table 2 batch): 362 nM; IC50 [5]: 1000 nM
17 | Cc1nc2ccc(F)c(N)c2c(=O)n1C1CCC(=O)NC1=O (stereo not shown) [Reference 3, reference compound] |  | 1170 nM | 
18 | Cc1nc2cc(O)cc(N)c2c(=O)n1C1CCC(=O)NC1=O (stereo not shown) [Compound K700] |  | 507 nM | 
19 | Cc1nc2c(F)ccc(N)c2c(=O)n1C1CCC(=O)NC1=O (stereo not shown) [Reference 2, reference compound] |  | > 300000 nM | 
20 | CC(=O)Nc1cc(F)cc2nc(C)n(C3CCC(=O)NC3=O)c(=O)c12 (stereo not shown) [Compound K633] | 392 nM | 314 nM | 
21 | Cc1nc2cc(F)cc(N)c2c(=O)n1[C@@H]1CCC(=O)NC1=O [Compound K103] | 283 nM |  | IC50 ([1]; Table 4 batch): 465 nM
22 | Cc1nc2cc(F)cc(NC(=O)C(C)C)c2c(=O)n1C1CCC(=O)NC1=O (stereo not shown) [Compound K635] |  | 2810 nM | 
23 | Cc1nc2cc(OCc3ccccc3)cc(N)c2c(=O)n1C1CCC(=O)NC1=O (stereo not shown) [Compound K704] | 466 nM |  | 
24 | Cc1nc2cc(C#N)cc(N)c2c(=O)n1C1CCC(=O)NC1=O (stereo not shown) [Compound K724] | 5.9 nM |  | 

Reference: patent US11702399B2, “Quinazolinone derivative, preparation method therefor, pharmaceutical composition, and applications” (KANGPU BIOPHARMACEUTICALS, LTD., priority 2016, dated 2023)
